{"source": "paper PMC7435928", "about": "“Preclinical Evaluation of NHS-Activated Gold Nanoparticles Functionalized with Bombesin or Neurotensin-Like Peptides for Targeting Colon and Prostate Tumours” (Molecules, 2020)", "origin": "cited, not measured here", "molecular_target": "bombesin BBRS1, BBRS2 and BBRS3 receptors", "parameters": "method as in printed for the value", "conditions": "target receptors BBRS1, BBRS2; not measured in this paper, ref not given; cited from earlier work", "data": [{"smiles": "COc1ccc(C2(CNC(=O)[C@](C)(Cc3c[nH]c4ccccc34)NC(=O)Nc3ccc([N+](=O)[O-])cc3)CCCCC2)nc1", "note": "[PD 176252]", "values": [{"measurement": "Kd", "result": 1, "unit": "nM"}]}]}
